The subject of assay [1] is panel of 97 protein kinases. The experiment in a line: KINOMEscan active-site dependent competition binding assay. The note with it: 10 μM; data not shown. The protocol: The fructose-6-phosphate kinase activity of human recombinant PFKFB4 in the presence of DMSO±indicated 5MPN concentrations was assayed as previously described. The activity of 5MPN against 97 kinases was examined using a commercially available active-site dependent competition binding assay core service (KINOMEscanEDGE) that quantifies the capacity of test agents to compete with an immobilized, active-site directed ligand using a DNA-tagged kinase and immobilized ligand and compound. For example, enzyme inhibition was studied using an ADP-Glo assay. The effect of MPN-2 on the activity of recombinant human PFKFB4 enzyme was examined in an ADP-Glo assay (Promega), which measures ADP formed from a kinase reaction. ADP is converted into ATP, which is converted into light by a luciferase. PFKFB4 protein was exposed to MPN-2 at indicated concentrations in the presence of ATP and fructose-6-phosphate and following manufacturer's instructions, ADP-Glo and kinase detections reagents were added. The data are shown as the decrease in luminescence caused by MPN-2 relative to DMSO.

The next assay relates to A549. The assay can be described thus: proliferation, viable cell count. The class given is cell-based, human. The settings on record: A549, over 48 hours. An excerpt:
(§1) H460, H1299, H441, H522 and A549 non-small cell lung cancer (NSCLC), MDA-MB-231 (breast), LNCaP (prostatic) and HCT116 (colon) adenocarcinoma and Lewis lung carcinoma (LLC) cell lines were obtained from ATCC and used within 6 months of acquisition. PFKFB4^−/− ear pinna fibroblasts isolated from TamCre/loxP/PFKFB4^−/− mice were immortalized as described previously (Chesney J et al. Fructose-2,6-bisphosphate synthesis by 6-phosphofructo-2-kinase/fructose-2,6-bisphosphatase 4 (PFKFB4) is required for the glycolytic response to hypoxia and tumor growth. Oncotarget 2014 Aug. 30; 5(16):6670-86). Normal bronchial epithelial cells (NHBE) were obtained from Lonza and NHBE cells expressing telomerase, SV40 large T antigen and activated Ras (hT/LT/Ras) were a gift from Dr. B. J. Rollins, Dana Farber Cancer Institute. All cell lines were tested and found negative for mycoplasma (PCR Mycoplasma Detection Kit, ABM). Cell lines were grown in DMEM (A549, LNCaP, MDA-MB-231, LLC and PFKFB4^−/−), RPMI 1640 (H460, H1299, H441, H522) and McCoy's 5A media (HCT116) (all from Invitrogen) containing 10% fetal calf serum (Hyclone). NHBE and hT/LT/Ras cells were grown in BEGM containing SingleQuots (Lonza). All lines were cultured at 37° C. in 5% CO2. In certain experiments, 4-hydroxytamoxifen (4HT, Sigma-Aldrich) was added to PFKFB4^−/− fibroblasts at indicated concentrations.
(§2) Cells were incubated in 20% trypan blue (Sigma) for 5 minutes. Cells excluding trypan blue were counted using a standard hemocytometer (Hausser Scientific) to determine total numbers of viable cells. Data are expressed as mean±SD of three experiments.

For a further assay, the system named is H1299. The experiment in a line: proliferation, viable cell count. The class given is cell-based, human. The settings on record: H1299, over 48 hours.
From the text: as §1, §2

A further assay has as its system H441. The assay can be described thus: proliferation, viable cell count. In kind it is cell-based, human. The note with it: H441, over 48 hours.
From the text: as §1, §2

The subject of the next assay is H522. The experiment in a line: proliferation, viable cell count. In kind it is cell-based, human. The settings on record: H522, over 48 hours.
From the text: as §1, §2

A further assay has as its system HCT116. The experiment in a line: proliferation, viable cell count. The class given is cell-based, human. The note with it: HCT116, over 48 hours.
From the text: as §1, §2

Another assay has as its system LNCaP. The experiment in a line: proliferation, viable cell count. The settings on record: over 48 hours. The class given is cell-based, human.
From the text: as §1, §2

The subject of the next assay is H460 cells. The assay can be described thus: cell cycle analysis by flow cytometry. The class given is cell-based, human. As for the experimental part: To measure apoptosis, cells were stained with annexin V and propidium iodide and examined as previously described. For example, H460 cells were exposed to increasing concentrations of the PFKFB4 inhibitor (MPN-2), the PFKFB3 inhibitor PFK15 (Tocris) or both and viable cells were counted at 24, 48 and 72 hours. DMSO used as vehicle. For cell cycle experiments, cells were detached, washed with cold PBS and fixed in 70% ethanol (4° C., 30 minutes). The cells then were pelleted by centrifugation, resuspended in PBS containing PI and RNase A, incubated at 37° C. in the dark for 30 minutes and analyzed by flow cytometry (BD FACSCalibur). Data were analyzed using FlowJo software (TREE STAR Inc.). Results were calculated as the mean±SD of three experiments. The effects (Fa values) of the series of concentrations of MPN-2 and PFK-15 were examined individually and in combination at a constant ratio of 1:1.

The subject of the next assay is human cancer cell lines. The experiment in a line: proliferation, viable cell count by trypan blue exclusion. In kind it is cell-based. The settings on record: counts at 48 hours shown. As for the experimental part: Method: Cells were plated in 24 well plates and exposed to increasing concentrations of Formula (VIII). DMSO was used as a vehicle. After 24, 48 and 72 hours of exposure, cells were detached, and viable cells were counted by Trypan blue exclusion (representative counts at 48 hours shown).

In another assay the test system is cancer cells. The assay can be described thus: anchorage independent growth as colonies in soft agar. The class given is cell-based. The settings on record: increasing concentrations. The protocol:
Method: Cancer cells were plated in soft agar and the effects of increasing concentrations of Formula (VIII) on anchorage independent growth was examined. Briefly, a feeder layer of 0.6% agarose (Agar Noble, Becton Dickinson) in RPMI with 10% fetal bovine serum was plated in 6 cm plates containing vehicle (DMSO) or increasing concentrations of Formula (VIII). 1×10^4 cells were re-suspended in 0.3% agarose in RPMI/10% serum containing DMSO or increasing concentrations of Formula (VIII) and plated on top of the feeder layer. Cells were allowed to grow at 37° C. in 5% CO2 and agarose-containing media with DMSO+/−Formula (VIII) was replenished every 5 days until colonies became visible. Colonies were stained with MTT [3-(4,5-dimethylthiazol-2-yl)-2,5-diphenyl tetrazolium bromide] and counted in four random 1 cm^2 areas per plate under 40× magnification and enumerated.

These results are taken from patent US10774046B2, “Inhibitors for the treatment of cancer and related methods” (UNIVERSITY OF LOUISVILLE RESEARCH FOUNDATION, INC., priority 2017, dated 2020).

As to `COc1cccc2c(NCCCCCO[N+](=O)[O-])ccnc12` [5MPN, 5-[(8-methoxyquinolin-4-yl)amino]pentyl nitrate], the “inhibition of a panel of 97 protein kinases” value in assay [1] was “not inhibited”. Besides, the growth entry in the assay with A549, in the assay with H1299, in the assay with H441, in the assay with H522, in the assay with HCT116 and in the assay on LNCaP was “dose-dependent reduction in growth” each time. In addition, the cell cycle distribution entry in the assay on H460 cells (H460, 10 μM 5MPN) is recorded as “G1 arrest”. Also, the “effect of overexpression of PFKFB4 on G1 arrest” value in the assay on H460 cells (H460 transfected with PFKFB4, 10 μM 5MPN, 24 hours) was “reversed”.
In the case of `COc1cccc2c(NCCCCCNC(=O)C(F)(F)F)ccnc12` [Formula (VIII), 2,2,2-trifluoro-N-(5-((8-methoxyquinolin-4-yl)amino)pentyl)acetamide], the “proliferation (cell counts relative to DMSO)” value with human cancer cell lines is “decreases the proliferation of human cancer cell lines in vitro with higher potency than 5MPN”. Further, the “anchorage independent growth (soft agar colonies)” value in the assay with cancer cells is recorded as “inhibited the growth of cancer cells as soft agar colonies”.
